For this data set the following is noted: Crystal; visual observation.

Drawing on the NIST ThermoML archive (doi:10.1021/je900524t), this text covers Normal melting temperature for 1 compound.

Structures are written as SMILES. ± gives the expanded uncertainty stated by the source.

On to `F[P-](F)(F)(F)(F)F.F[P-](F)(F)(F)(F)F.c1cc[n+](CC[n+]2ccccc2)cc1` [1,1'-(ethane-1,2-diyl)bis(pyridin-1-ium) hexafluorophosphate], for which the Normal melting temperature is 220.20 ± 1.4 °C.
